Data as given in the NIST ThermoML archive (doi:10.1016/j.jct.2012.10.011).

Key:
[1] = for molar entropy: 101.33 kPa, Vacuum adiabatic calorimetry; for vapor or sublimation pressure: Closed cell (Static) method
[2] = Molar enthalpy of transition or fusion; conditions: Crystal; Adiabatic calorimetry
[3] = molar heat capacity at constant pressure; conditions: 101.33 kPa, Vacuum adiabatic calorimetry
[4] = molar enthalpy of vaporization or sublimation; conditions: 298.15 K; Liquid; Static calorimetry

CN=C=O [methyl isocyanate]
Conditions | Triple point temperature [K] | molar entropy [J/K/mol] | molar heat capacity at constant pressure [J/K/mol] | vapor or sublimation pressure [kPa]
[1], 20 K, Crystal | – | 2.44 | – | –
[1], 30 K, Crystal | – | 6.933 | – | –
[1], 40 K, Crystal | – | 12.87 | – | –
[1], 50 K, Crystal | – | 19.5 | – | –
[1], 60 K, Crystal | – | 26.39 | – | –
[1], 70 K, Crystal | – | 33.31 | – | –
[1], 80 K, Crystal | – | 40.14 | – | –
[1], 90 K, Crystal | – | 46.89 | – | –
[1], 100 K, Crystal | – | 53.42 | – | –
[1], 110 K, Crystal | – | 59.72 | – | –
[1], 120 K, Crystal | – | 65.78 | – | –
[1], 130 K, Crystal | – | 71.59 | – | –
[1], 140 K, Crystal | – | 77.17 | – | –
[1], 150 K, Crystal | – | 82.52 | – | –
[1], 160 K, Crystal | – | 87.67 | – | –
[1], 170 K, Crystal | – | 92.65 | – | –
[1], 178.47 K, Liquid | – | – | – | 0.024
[1], 180 K, Liquid | – | 139.42 | – | –
[1], 184.03 K, Liquid | – | – | – | 0.036
[1], 189.11 K, Liquid | – | – | – | 0.04666
[1], 190 K, Liquid | – | 145 | – | –
[1], 194.19 K, Liquid | – | – | – | 0.06666
[1], 199.43 K, Liquid | – | – | – | 0.1293
[1], 200 K, Liquid | – | 150.29 | – | –
[1], 204.46 K, Liquid | – | – | – | 0.2053
[1], 209.49 K, Liquid | – | – | – | 0.3106
[1], 210 K, Liquid | – | 155.31 | – | –
[1], 214.49 K, Liquid | – | – | – | 0.4826
[1], 219.48 K, Liquid | – | – | – | 0.7226
[1], 220 K, Liquid | – | 160.1 | – | –
[1], 224.44 K, Liquid | – | – | – | 1.048
[1], 229.43 K, Liquid | – | – | – | 1.5
[1], 230 K, Liquid | – | 164.68 | – | –
[1], 234.35 K, Liquid | – | – | – | 2.12
[1], 239.21 K, Liquid | – | – | – | 2.938
[1], 240 K, Liquid | – | 169.08 | – | –
[1], 244.16 K, Liquid | – | – | – | 4.036
[1], 249.07 K, Liquid | – | – | – | 5.45
[1], 250 K, Liquid | – | 173.31 | – | –
[1], 253.98 K, Liquid | – | – | – | 7.286
[1], 258.88 K, Liquid | – | – | – | 9.597
[1], 260 K, Liquid | – | 177.38 | – | –
[1], 263.72 K, Liquid | – | – | – | 12.47
[1], 268.59 K, Liquid | – | – | – | 16.03
[1], 270 K, Liquid | – | 181.33 | – | –
[1], 273.4 K, Liquid | – | – | – | 20.31
[1], 278.1 K, Liquid | – | – | – | 25.44
[1], 280 K, Liquid | – | 185.16 | – | –
[1], 282.71 K, Liquid | – | – | – | 31.41
[1], 287.27 K, Liquid | – | – | – | 38.39
[1], 290 K, Liquid | – | 188.89 | – | –
[1], 296.38 K, Liquid | – | – | – | 56.22
[1], 297.07 K, Liquid | – | – | – | 57.78
[1], 300 K, Liquid | – | 192.52 | – | –
[1], Crystal, Adiabatic calorimetry | 178.46 | – | – | –
[3], 14.71 K, Crystal | – | – | 2.971 | –
[3], 15.61 K, Crystal | – | – | 3.494 | –
[3], 16.68 K, Crystal | – | – | 4.234 | –
[3], 18.13 K, Crystal | – | – | 5.318 | –
[3], 19.93 K, Crystal | – | – | 6.837 | –
[3], 20 K, Crystal | – | – | 6.9 | –
[3], 21.81 K, Crystal | – | – | 8.41 | –
[3], 25.1 K, Crystal | – | – | 11.4 | –
[3], 27.08 K, Crystal | – | – | 13.31 | –
[3], 29.42 K, Crystal | – | – | 15.5 | –
[3], 30 K, Crystal | – | – | 16.07 | –
[3], 31.96 K, Crystal | – | – | 17.95 | –
[3], 34.72 K, Crystal | – | – | 20.64 | –
[3], 38.26 K, Crystal | – | – | 23.96 | –
[3], 40 K, Crystal | – | – | 25.53 | –
[3], 42.59 K, Crystal | – | – | 27.81 | –
[3], 47.01 K, Crystal | – | – | 31.56 | –
[3], 50 K, Crystal | – | – | 34.07 | –
[3], 51.57 K, Crystal | – | – | 35.36 | –
[3], 56.6 K, Crystal | – | – | 39.11 | –
[3], 60 K, Crystal | – | – | 41.49 | –
[3], 60.37 K, Crystal | – | – | 41.76 | –
[3], 62.3 K, Crystal | – | – | 43.18 | –
[3], 65.89 K, Crystal | – | – | 45.61 | –
[3], 70 K, Crystal | – | – | 48.2 | –
[3], 71.87 K, Crystal | – | – | 49.37 | –
[3], 78.77 K, Crystal | – | – | 53.47 | –
[3], 80 K, Crystal | – | – | 54.31 | –
[3], 85.79 K, Crystal | – | – | 57.74 | –
[3], 88.54 K, Crystal | – | – | 59.08 | –
[3], 90 K, Crystal | – | – | 59.83 | –
[3], 91.98 K, Crystal | – | – | 60.67 | –
[3], 94.33 K, Crystal | – | – | 61.76 | –
[3], 97.68 K, Crystal | – | – | 63.18 | –
[3], 100 K, Crystal | – | – | 64.14 | –
[3], 100.44 K, Crystal | – | – | 64.31 | –
[3], 102.2 K, Crystal | – | – | 64.94 | –
[3], 104.38 K, Crystal | – | – | 65.94 | –
[3], 109.48 K, Crystal | – | – | 67.86 | –
[3], 110 K, Crystal | – | – | 68.03 | –
[3], 112.6 K, Crystal | – | – | 68.66 | –
[3], 115.84 K, Crystal | – | – | 69.87 | –
[3], 118.15 K, Crystal | – | – | 70.67 | –
[3], 120 K, Crystal | – | – | 71.25 | –
[3], 120.45 K, Crystal | – | – | 71.25 | –
[3], 121.38 K, Crystal | – | – | 71.63 | –
[3], 126.84 K, Crystal | – | – | 73.26 | –
[3], 128.41 K, Crystal | – | – | 73.55 | –
[3], 130 K, Crystal | – | – | 73.97 | –
[3], 134.41 K, Crystal | – | – | 75.06 | –
[3], 134.59 K, Crystal | – | – | 75.1 | –
[3], 135.09 K, Crystal | – | – | 75.27 | –
[3], 136.89 K, Crystal | – | – | 75.48 | –
[3], 136.94 K, Crystal | – | – | 75.65 | –
[3], 140 K, Crystal | – | – | 76.36 | –
[3], 141.89 K, Crystal | – | – | 76.82 | –
[3], 141.97 K, Crystal | – | – | 76.94 | –
[3], 142.35 K, Crystal | – | – | 76.96 | –
[3], 146.02 K, Crystal | – | – | 77.82 | –
[3], 148.22 K, Crystal | – | – | 78.32 | –
[3], 149.33 K, Crystal | – | – | 78.45 | –
[3], 150 K, Crystal | – | – | 78.7 | –
[3], 151.79 K, Crystal | – | – | 79.04 | –
[3], 155.37 K, Crystal | – | – | 79.91 | –
[3], 156.39 K, Crystal | – | – | 80 | –
[3], 160 K, Crystal | – | – | 81 | –
[3], 160.19 K, Crystal | – | – | 79.83 | –
[3], 161.8 K, Crystal | – | – | 81.59 | –
[3], 163.79 K, Crystal | – | – | 82.42 | –
[3], 166.13 K, Crystal | – | – | 83.6 | –
[3], 167.44 K, Crystal | – | – | 83.09 | –
[3], 168.2 K, Crystal | – | – | 82.26 | –
[3], 169.15 K, Crystal | – | – | 83.01 | –
[3], 169.49 K, Crystal | – | – | 82.34 | –
[3], 170 K, Crystal | – | – | 83.39 | –
[3], 171.56 K, Crystal | – | – | 83.51 | –
[3], 172.5 K, Crystal | – | – | 83.39 | –
[3], 173.3 K, Crystal | – | – | 84.35 | –
[3], 180 K, Liquid | – | – | 103.4 | –
[3], 183.24 K, Liquid | – | – | 103.39 | –
[3], 186.5 K, Liquid | – | – | 103.34 | –
[3], 187.36 K, Liquid | – | – | 103.26 | –
[3], 190 K, Liquid | – | – | 103.2 | –
[3], 192.13 K, Liquid | – | – | 103.09 | –
[3], 196.44 K, Liquid | – | – | 103.09 | –
[3], 197.5 K, Liquid | – | – | 102.93 | –
[3], 198.47 K, Liquid | – | – | 103 | –
[3], 200 K, Liquid | – | – | 103 | –
[3], 201 K, Liquid | – | – | 102.97 | –
[3], 202.92 K, Liquid | – | – | 103 | –
[3], 210 K, Liquid | – | – | 103 | –
[3], 211.33 K, Liquid | – | – | 103 | –
[3], 219.74 K, Liquid | – | – | 103 | –
[3], 220 K, Liquid | – | – | 103 | –
[3], 228.75 K, Liquid | – | – | 102.9 | –
[3], 230 K, Liquid | – | – | 103.1 | –
[3], 238.24 K, Liquid | – | – | 103.3 | –
[3], 240 K, Liquid | – | – | 103.4 | –
[3], 247.64 K, Liquid | – | – | 103.6 | –
[3], 250 K, Liquid | – | – | 103.8 | –
[3], 257.03 K, Liquid | – | – | 104.1 | –
[3], 260 K, Liquid | – | – | 104.3 | –
[3], 266.32 K, Liquid | – | – | 104.6 | –
[3], 270 K, Liquid | – | – | 104.9 | –
[3], 275.54 K, Liquid | – | – | 105.4 | –
[3], 280 K, Liquid | – | – | 105.8 | –
[3], 284.64 K, Liquid | – | – | 106.1 | –
[3], 290 K, Liquid | – | – | 106.7 | –
[3], 293.07 K, Liquid | – | – | 107 | –
[3], 300 K, Liquid | – | – | 107.7 | –
[3], 301.23 K, Liquid | – | – | 107.7 | –

Conditions | Molar enthalpy of transition or fusion [kcal/mol] | molar enthalpy [kcal/mol]
[2] | 1.782 | –
[4] | – | 6.871
